In ChEMBL document CHEMBL1201862, “PubChem BioAssay data set” (2004):
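Values below derive from 48-hour exposures of cells grown in 96-well plates, with endpoints linearly interpolated between the two concentrations bracketing the appropriate inhibition level. Here, GI50 denotes the concentration required for 50% inhibition of growth.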 Calls of active or inactive are those of the source. Cut-off read from the data, not from the text of the source: active = GI50 up to about 1.1 µM and inactive = higher.

Columns and labels:
Experiment in all cases: NCI tumour cell line growth inhibition, 48 h
NCI-H23 = system: NCI-H23
SK-MEL-2 = system: SK-MEL-2
NCI-H522 = system: NCI-H522
RXF 393 = system: RXF 393
M14 = system: M14
OVCAR-4 = system: OVCAR-4
SNB-75 = system: SNB-75
SNB-19 = system: SNB-19
MOLT-4 = system: MOLT-4
ACHN = system: ACHN
MCF7 = system: MCF7
LOX IMVI = system: LOX IMVI
HCT-116 = system: HCT-116
M19-MEL = system: M19-MEL
KM-20L2 = system: KM-20L2
NCI-H226 = system: NCI-H226
HOP-62 = system: HOP-62
DMS-114 = system: DMS-114
HOP-18 = system: HOP-18
XF498 = system: XF498

| Structure (SMILES) | GI50 (NCI-H23) | GI50 (SK-MEL-2) | GI50 (NCI-H522) | GI50 (RXF 393) | GI50 (M14) | GI50 (OVCAR-4) | GI50 (SNB-75) | GI50 (SNB-19) | GI50 (MOLT-4) | GI50 (ACHN) | GI50 (MCF7) | GI50 (LOX IMVI) | GI50 (HCT-116) | GI50 (M19-MEL) | GI50 (KM-20L2) | GI50 (NCI-H226) | GI50 (HOP-62) | GI50 (DMS-114) | GI50 (HOP-18) | GI50 (XF498) |
| --- | --- | --- | --- | --- | --- | --- | --- | --- | --- | --- | --- | --- | --- | --- | --- | --- | --- | --- | --- | --- |
| CCOC(=O)C(NC(=O)CC)(Nc1ccccc1OC)C(F)(F)F (stereo not given) | > 100 µM (inactive) | > 100 µM (inactive) | > 100 µM (inactive) | > 100 µM (inactive) | > 100 µM (inactive) | > 100 µM (inactive) | > 100 µM (inactive) | > 100 µM (inactive) | > 100 µM (inactive) | > 100 µM (inactive) | > 100 µM (inactive) | > 100 µM (inactive) | > 100 µM (inactive) | – | – | – | – | – | – | – |
| Cc1c2c(cc3c1[nH]c1ccccc13)C=NCC2 | 19.7 µM (inactive) | 10.1 µM (inactive) | 12.9 µM (inactive) | 6.89 µM (inactive) | – | 16.6 µM (inactive) | 10.6 µM (inactive) | 18.2 µM (inactive) | 7.69 µM (inactive) | – | 2.92 µM (inactive) | 8.09 µM (inactive) | 6.34 µM (inactive) | 11.1 µM (inactive) | 9.51 µM (inactive) | 20.7 µM (inactive) | 31.8 µM (inactive) | 6.9 µM (inactive) | 9.62 µM (inactive) | 7.14 µM (inactive) |
| CCOC(=O)/C=C(\C)c1ccc(OC)cc1 | > 100 µM (inactive) | > 100 µM (inactive) | – | > 100 µM (inactive) | > 100 µM (inactive) | > 100 µM (inactive) | > 100 µM (inactive) | > 100 µM (inactive) | – | 74.1 µM (inactive) | – | > 100 µM (inactive) | > 100 µM (inactive) | – | > 100 µM (inactive) | > 100 µM (inactive) | – | > 100 µM (inactive) | > 100 µM (inactive) | > 100 µM (inactive) |
| CC(=O)NC1=C[C@@H]([C@H]2COC(C)(C)O2)OC1=O | > 100 µM (inactive) | > 100 µM (inactive) | > 100 µM (inactive) | > 100 µM (inactive) | – | – | > 100 µM (inactive) | > 100 µM (inactive) | > 100 µM (inactive) | – | > 100 µM (inactive) | > 100 µM (inactive) | > 100 µM (inactive) | > 100 µM (inactive) | > 100 µM (inactive) | > 100 µM (inactive) | > 100 µM (inactive) | > 100 µM (inactive) | > 100 µM (inactive) | > 82.8 µM (inactive) |
| OCCNCN(CNCCO)c1nc(N(CNCCO)CNCCO)nc(N(CNCCO)CNCCO)n1 | 0.0655 µM (active) | 0.0838 µM (active) | 0.0653 µM (active) | 0.0676 µM (active) | 0.0577 µM (active) | 0.0715 µM (active) | – | 0.0708 µM (active) | 0.0873 µM (active) | 0.04 µM (active) | – | 0.0916 µM (active) | – | 0.0405 µM (active) | 0.103 µM (active) | 0.0802 µM (active) | 0.0687 µM (active) | – | 0.0841 µM (active) | > 0.4 µM (active) |
| CCCCOc1ccc(OCCCCCCCCCC[N+](C)(C)C)cc1 | 1.95 µM (inactive) | 2.01 µM (inactive) | 1.7 µM (inactive) | 0.796 µM (active) | – | 2.86 µM (inactive) | 2.17 µM (inactive) | 7.6 µM (inactive) | 1.38 µM (inactive) | – | 3.44 µM (inactive) | 1.53 µM (inactive) | 2.34 µM (inactive) | – | 0.682 µM (active) | 4.26 µM (inactive) | 3.62 µM (inactive) | 2.05 µM (inactive) | 3.42 µM (inactive) | 1.71 µM (inactive) |
| CCOC(=O)c1csc(NC(=O)CCN(CC)CC)n1 | 64.7 µM (inactive) | 55.7 µM (inactive) | – | 49.4 µM (inactive) | 25 µM (inactive) | 57.4 µM (inactive) | 28.1 µM (inactive) | > 100 µM (inactive) | 32.7 µM (inactive) | 42.9 µM (inactive) | 26 µM (inactive) | 33.2 µM (inactive) | – | – | – | 30.3 µM (inactive) | > 100 µM (inactive) | – | – | – |
| CCOC(=O)/C(C#N)=C1/SC(C(=O)N/N=C/c2ccc(OC)cc2)=C(N)N1c1ccccc1 | > 100 µM (inactive) | – | > 100 µM (inactive) | – | – | – | 0.318 µM (active) | > 100 µM (inactive) | > 100 µM (inactive) | 28.9 µM (inactive) | – | – | > 100 µM (inactive) | > 100 µM (inactive) | – | > 100 µM (inactive) | 71 µM (inactive) | – | > 100 µM (inactive) | – |
| COc1ccc(/C=N/N=C(N)N)c(C(=O)O)c1OC | > 100 µM (inactive) | – | > 100 µM (inactive) | > 100 µM (inactive) | > 100 µM (inactive) | > 100 µM (inactive) | > 100 µM (inactive) | > 100 µM (inactive) | > 100 µM (inactive) | > 100 µM (inactive) | – | – | > 100 µM (inactive) | – | > 100 µM (inactive) | – | – | > 100 µM (inactive) | > 100 µM (inactive) | – |
| C/N=c1/ssc(=S)n1C(C)C | 12.2 µM (inactive) | 42 µM (inactive) | – | 7.5 µM (inactive) | 12.8 µM (inactive) | – | 1.11 µM (active) | > 100 µM (inactive) | 10.8 µM (inactive) | 20.8 µM (inactive) | – | – | 19.7 µM (inactive) | 13.7 µM (inactive) | 16.7 µM (inactive) | 56.2 µM (inactive) | 18.9 µM (inactive) | 3.13 µM (inactive) | – | – |
| COc1ccc(OC)c(NC(=O)C(=O)C(C(=O)c2ccccc2F)C2OC(=O)c3ccccc32)c1 (stereo not given) | 57.1 µM (inactive) | 43.1 µM (inactive) | 23.5 µM (inactive) | 25.5 µM (inactive) | > 100 µM (inactive) | 66.8 µM (inactive) | 39.7 µM (inactive) | 36 µM (inactive) | 26.3 µM (inactive) | 82.6 µM (inactive) | – | 25.2 µM (inactive) | 37.3 µM (inactive) | 29.1 µM (inactive) | 51.9 µM (inactive) | 16.6 µM (inactive) | 50.2 µM (inactive) | 20.8 µM (inactive) | – | 34.8 µM (inactive) |
| Nc1[nH]cnc2ncnc1-2 [ADENINE] | – | > 250 µM (inactive) | 50.7 µM (inactive) | 30.1 µM (inactive) | – | > 126 µM (inactive) | 121 µM (inactive) | – | – | – | > 21.3 µM (inactive) | 140 µM (inactive) | > 250 µM (inactive) | > 141 µM (inactive) | > 250 µM (inactive) | 111 µM (inactive) | 58.9 µM (inactive) | 84.1 µM (inactive) | 109 µM (inactive) | 9.4 µM (inactive) |
